Consider three compounds from US20020147137A1, “Medical use of alpha1-acid glycoprotein (AAG) or orosomucoid” (Hamosan Erzeugung Pharmazeutischer Grundstoffe Gesellschaft …, priority 1999, published 2002).

Data set [1] deals with patient in methadone withdrawal. Kind of data set: Methadone withdrawal by administration of α1-acid glycoprotein: clinical course. It is filed as in vivo, human (patient). How it is done: The patient's circulation is stable, the patient is co-operative, a venous cannula and a peripheral venous catheter on the left side are set. Immediately after admission, beginning of sedation with Dormicum 0.4 mg/kg/d, Clonidin 0.02 mg/kg/d. Dormicum bolus administration at admission.
Volume substitution with Elohaest, human albumin and electrolyte solution.
From 4:05 p.m. to 4:15 p.m., renewed hemodilution: 400 ml of own blood was drawn.
Urinating is without any problems and spontaneous.
The patient's only problems are nicotine withdrawal.
Therapy with Clonidin and Dormicum is changed to oral (4×0.075 mg Catapresan and 4×7.5 mg Dormicum per os) with sufficient magnesium substitution in addition. Subjectively, the patient feels well and is free from any discomfort.
Removal of the peripheral venous catheter, continuation of the oral therapy, the patient is moved to the LNKH while being in a good general state and subjectively feeling well.

For data set [2], the system named is isolated perfused rat livers. Particulars: protein added to perfusate; cited from earlier work.
Data set [3] can be described thus: Withdrawal by means of plasma exchange (comparative): methadone, methadone metabolites and thebaine measured in urine. Particulars: for Substance measured in urine: before 1. PE / before therapy; for concentration at 1 day / concentration at 2 day / concentration at 3 day / concentration at 4 day / concentration at 5 day / concentration at 6 day / concentration at 7 day / concentration at 17 day / concentration at 24 day / concentration at 31 day: human, in vivo. An excerpt: In the withdrawal therapy of a methadone addict, one of the inventors has practised the method of plasma exchange (PE) for assisting and accelerating the removal of methadone from the body, i.e., blood was taken from the patient, the cellular components were separated and re-infused into the body, and instead of the patient's own plasma portion, the plasma of a donor was supplied.
The patient was 2 x connected to the plasmapheresis (1st and 3rd day). […] Besides, the coagulation parameters were measured because of the hypercoagulability.

As to α1-acid glycoprotein, the “tolerability after first administration” value in data set [1] (3 grams in 500 ml of infusion solution at 10 a.m.) is listed as “first symptoms with slight sweating, otherwise no problems so far”. Besides, the “acute reaction after second administration” value in data set [1] (6 grams in merely 150 ml of infusion solution at 4:30 p.m.) was “symptoms of an acute reaction, similar to an allergy”. Besides, the physical withdrawal symptoms entry in data set [1] (9/20/97, day after AAG administration) is “no physical withdrawal symptoms”. Also, the physical withdrawal symptoms entry in data set [1] (9/21/97, second day after AAG administration) is “no particular physical withdrawal symptoms”. Further, the “withdrawal symptoms after AAG administration” value in data set [1] (after the short crisis following the 2nd partial amount) is on record as “intensive recovery phase without any withdrawal symptoms”. Besides, the “total time until treatment could be terminated” value in data set [1] (methadone withdrawal with AAG, 2nd patient) is “three”. In data set [2], the “influence on elimination of drugs capable of being bound” value is recorded as “slowed down” and the “influence on elimination of nonbinding drugs” value is “no influence”.
`CCC(=O)C(CC(C)N(C)C)(c1ccccc1)c1ccccc1` (racemic) [methadone, reference compound]: in data set [3], the “Substance measured in urine” value was 15 µg/mL, the concentration at 1 day was 3 µg/mL, the concentration at 2 day worked out at 1.9 µg/mL and the concentration at 3 day is 0.5 µg/mL. Also, in data set [3], the concentration at 4 day turned out to be 0.5 µg/mL, the concentration at 5 day is 0.4 µg/mL, the concentration at 6 day was 0.3 µg/mL and the concentration at 7 day amounted to 0.5 µg/mL. In data set [3], the concentration at 17 day turned out to be 0 µg/mL, the concentration at 24 day amounted to 0 µg/mL and the concentration at 31 day stood at 0 µg/mL.
As to `COC1=CC=C2[C@H]3Cc4ccc(OC)c5c4[C@@]2(CCN3C)[C@H]1O5` [thebaine], in data set [3], the “Substance measured in urine” value amounted to 7 µg/mL, the concentration at 1 day worked out at 0 µg/mL, the concentration at 2 day stood at 0 µg/mL and the concentration at 3 day turned out to be 0 µg/mL. Further, in data set [3], the concentration at 4 day turned out to be 0 µg/mL, the concentration at 5 day is 0 µg/mL, the concentration at 6 day came out at 0 µg/mL and the concentration at 7 day came to 0 µg/mL. Also, in data set [3], the concentration at 17 day came to 0 µg/mL, the concentration at 24 day amounted to 0 µg/mL and the concentration at 31 day is 0 µg/mL.
